Results published in ChEMBL document CHEMBL5518178 (Eur J Med Chem, 2024).

Columns and labels:
KYSE-30 = experiment: Antiproliferative activity against human KYSE-30 cells assessed as inhibition of cell growth incubated for 48 hrs by MTT assay; format: functional, cell-based; conditions: KYSE-30, 48 h
HCT-116 = experiment: Antiproliferative activity against human HCT-116 cells assessed as inhibition of cell growth incubated for 48 hrs by MTT assay; format: functional, cell-based; conditions: HCT-116, 48 h
MGC-803 [1] = experiment: Antiproliferative activity against human MGC-803 cells assessed as inhibition of cell growth incubated for 48 hrs by MTT assay; format: functional, cell-based; conditions: MGC-803, 48 h
MGC-803 [2] = experiment: Antitumor activity against human MGC-803 cells xenografted in BALB/c-nude mouse assessed as tumor growth inhibition at 30 mg/kg/day, ip administered for 18 days relative to control; format: functional; conditions: MGC-803, 432 h, time 18 day, read-out: TGI
[3] = Toxicity in BALB/c-nude mouse xenografted with human MGC-803 cells assessed as abnormal behaviour at 30 mg/kg/day, ip administered for 18 days; format: organism-based; conditions: in vivo, 432 h, time 18 day
MGC-803 [4] = experiment: Antitumor activity against human MGC-803 cells xenografted in BALB/c-nude mouse assessed as tumor weight at 30 mg/kg/day, ip administered for 18 days (reference value: 0.656 g); format: functional; conditions: time 18 day
MGC-803 [5] = experiment: Antitumor activity against human MGC-803 cells xenografted in BALB/c-nude mouse assessed as tumor growth rate at 30 mg/kg/day, ip administered for 18 days relative to control; format: functional; conditions: time 18 day
[6] = Toxicity in BALB/c-nude mouse xenografted with human MGC-803 cells assessed as change in body weight at 30 mg/kg/day, ip administered for 18 days; format: organism-based; conditions: in vivo, 432 h, time 18 day

| SMILES | IC50 (HCT-116) [nM] | IC50 (MGC-803 [1]) [nM] | IC50 (KYSE-30) [nM] | inhibition in vivo at 30 mg/kg/day (MGC-803 [2]) [%] | Activity [3] | Activity (MGC-803 [4]) [g] | Activity (MGC-803 [5]) [%] | Activity [6] |
| --- | --- | --- | --- | --- | --- | --- | --- | --- |
| COc1ccc2c(c1)CCN2c1cc(=O)oc2ccccc12 | 160 | 120 | 150 | – | – | – | – | – |
| Cc1ccc2c(c1)CCN2c1cc(=O)oc2ccccc12 | 2280 | 2090 | 1970 | – | – | – | – | – |
| COc1ccc2c(c1)NC(=O)CN2c1cc(=O)oc2ccccc12 | 38 | 12 | 34 | – | – | – | – | – |
| CN1CCN(c2cc(=O)oc3ccccc23)CC1 | > 20000 | > 20000 | > 20000 | – | – | – | – | – |
| O=c1cc(N2CCc3ccccc32)c2ccccc2o1 | 2980 | 1290 | 2180 | – | – | – | – | – |
| COc1ccc(/C=C\c2cc(OC)c(OC)c(OC)c2)cc1O [COMBRETASTATIN A4] | – | – | – | 58.5 | Non-Toxic | 0.272 | 38 | Non-Toxic |
| O=C(c1cc2ccccc2oc1=O)N1CCc2cc(Br)ccc21 | 14200 | 13100 | 17100 | – | – | – | – | – |
| O=C(c1cc2ccccc2oc1=O)N1CCCc2cc(Cl)ccc21 | 11900 | 9990 | 13200 | – | – | – | – | – |
| COc1ccc2c(c1)CCCN2C(=O)c1cc2ccccc2oc1=O | 5580 | 4140 | 7190 | – | – | – | – | – |
| COc1ccc2c(c1)CCN2C(=O)c1cc2ccccc2oc1=O | 9440 | 7410 | 9080 | – | – | – | – | – |
| COc1cc2c(c(OC)c1OC)-c1ccc(OC)c(=O)cc1[C@@H](NC(C)=O)CC2 [COLCHICINE] | 55 | 41 | 68 | – | – | – | – | – |

Now from value to compound, other results behind:

| IC50 (HCT-116) [nM] | IC50 (MGC-803 [1]) [nM] | SMILES | IC50 (KYSE-30) [nM] | inhibition in vivo at 30 mg/kg/day (MGC-803 [2]) [%] | Activity [3] | Activity (MGC-803 [4]) [g] | Activity (MGC-803 [5]) [%] | Activity [6] |
| --- | --- | --- | --- | --- | --- | --- | --- | --- |
| 450 | 420 | Cc1ccc2c(c1)CCCN2c1cc(=O)oc2ccccc12 | 400 | – | – | – | – | – |
| 730 | 670 | O=c1cc(N2CCCc3ccccc32)c2ccccc2o1 | 680 | – | – | – | – | – |
| > 20000 | > 20000 | O=c1cc(N2CCOCC2)c2ccccc2o1 | > 20000 | – | – | – | – | – |
| > 20000 | > 20000 | O=c1cc(N2CCCC2)c2ccccc2o1 | > 20000 | – | – | – | – | – |
| > 20000 | > 20000 | CC1CCN(c2cc(=O)oc3ccccc23)CC1 | > 20000 | – | – | – | – | – |
| 910 | 880 | O=c1cc(N2CCCc3cc(O)ccc32)c2ccccc2o1 | 870 | – | – | – | – | – |
| 18700 | 18100 | COc1ccc(N2CCN(c3cc(=O)oc4ccccc34)CC2)cc1 | > 20000 | – | – | – | – | – |
| 1470 | 1190 | O=c1cc(N2CCCc3cc(Br)ccc32)c2ccccc2o1 | 1520 | – | – | – | – | – |
| > 20000 | > 20000 | COC1CCN(c2cc(=O)oc3ccccc23)CC1 | > 20000 | – | – | – | – | – |
